Like-named read-outs stand apart in the source and are kept apart here.
Assays:
[1] = system: head twitch response in C57BL/6J male mice; assay type: in vivo
Method: The study of example 2 was performed using C57BL/6J male mice (25-30 g; Envigo, Milan, Italy). The animals were divided into groups of 10 animals each: (a) control, (b) vehicle, and (c) combinations of psilocyn (1 mg/kg) and pinoline (3 or 10 mg/kg). The treated mice were left to fast in the 12 hours prior to administration. Psilocyn and pinoline were resuspended in a solution of EtOH 20%. Mice were subjected to a singular oral administration of compounds. The vehicle group was given the EtOH 20% solution.
After administration, the animals were placed individually in transparent plexiglass cages. […] (See Halberstadt, Adam L., et al. “Differential contributions of serotonin receptors to the behavioral effects of indoleamine hallucinogens in mice.” Journal of psychopharmacology 25.11 (2011): 1548-1561.) (Sun, Yina, et al. “Effects of low-doses of methamphetamine on d-fenfluramine-induced head-twitch response (HTR) in mice during ageing and c-fos expression in the prefrontal cortex.” BMC neuroscience 24.1 (2023): 1-17.).

[2] = system: CAR-induced paw edema; assay: Carrageenan (CAR)-induced rat paw edema (plethysmometer); conditions: Psilocin alone at 3 and 10 mg/Kg
Method: A study was performed using male Sprague-Dawley rats (200-250 g; Envigo, Milan, Italy). Food and water were accessible ad libitum. Rats were concurrently subjected to a singular subplantar injection of CAR (100 μL of saline solution containing 1% CAR). […] Edema was expressed as the increase in paw volume (mL) after CAR injection relative to the pre-injection value for all animals. Scores were expressed as paw volume difference (mL).

[3] = system: 5-HT2A; conditions: Central Nervous System (CNS); cited from earlier work
[4] = system: 5-HT2A; conditions: Central Nervous System (CNS); cited from earlier work; remark: listed apart in the source
[5] = system: mechanical allodynia / paw-withdrawal threshold after CAR injection; assay: Mechanical allodynia, Von Frey hair test after CAR injection; conditions: Psilocin alone at 3 and 10 mg/Kg
Method: A study was performed using male Sprague-Dawley rats (200-250 g; Envigo, Milan, Italy). Food and water were accessible ad libitum. Rats were concurrently subjected to a singular subplantar injection of CAR (100 μL of saline solution containing 1% CAR).
Mechanical allodynia was evaluated using a dynamic plantar Von Frey hair aesthesiometer on time 0 and 1, 2, 3, 4, 5, and 6 days post-injection (Bio-EVF4; Bioseb, Vitrolles, France) as previously described (D'Amico, R.; Fusco, R.; Siracusa, R.; Impellizzeri, D.; Peritore, A. F.; Gugliandolo, E.; Interdonato, L.; Sforza, A. M.; Crupi, R.; Cuzzocrea, S.; et al. Inhibition of P2X7 Purinergic Receptor Ameliorates Fibromyalgia Syndrome by Suppressing NLRP3 Pathway. Int. J. Mol. Sci. 2021, 22, 6471. https://doi.org/10.3390/ijms22126471). The device encloses a force transducer furnished with a plastic tip. When pressure is applied to the tip, the force applied is recorded. The tip was applied to the plantar area of the hind leg, and a rising upward force was exerted until the paw was withdrawn. The withdrawal threshold was defined as the force, expressed in grams, at which the mouse removed the paw.
To investigate whether Psilocin+Pinoline were able to reduce pain associated with CAR injection, a Von Frey test was performed.

Compound | effect of pinoline on psilocin activity (head twitch) ([1]; pinoline 3 mg/kg with psilocin 1 mg/kg) | effect of pinoline on psilocin activity (head twitch) ([1]; pinoline 10 mg/kg with psilocin 1 mg/kg) | anti-inflammatory effects [2] | binding to 5-HT2A receptor [3] | effect in head twitch test, 11-20 minutes ([1]; 10 mg/kg alone, after 11-20 minutes from administration) | number of head movements ([1]; 10 mg/kg, after 10 minutes from treatment) | activities caused by 5-HT2A binding in the CNS [4] | analgesic effects [5]
COc1ccc2[nH]c3c(c2c1)CCNC3 [Pinoline, pinoline] | prolonged the psilocin (1 mg/kg) activity | prolonged the psilocin (1 mg/kg) activity |  |  |  |  |  | 
CN(C)CCc1c[nH]c2cccc(O)c12 [Psilocin, 4-hydroxy-N,N-dimethyltryptamine] |  |  | anti-inflammatory and analgesic effects | known to bind | finished | important number of head movements | hallucinogenic, anxiolytic, and psychoactive activities | anti-inflammatory and analgesic effects
CN(C)CCc1c[nH]c2cccc(OP(=O)(O)O)c12 [Psilocybin, 4-phosphoryloxy-N,N-dimethyltryptamine] |  |  |  | known to bind |  |  | hallucinogenic, anxiolytic, and psychoactive activities | 
